The values that follow come from patent publication US20090304692A1, “TRIAZINE COMPOUNDS AS PI3 KINASE AND MTOR INHIBITORS” (Wyeth, priority 2008, published 2009).

Like-named read-outs stand apart in the source and are kept apart here.

One experiment concerns the target PI3K-α (Homo sapiens, UniProt P42336). Kind of experiment: PI3K-alpha fluorescence polarization assay. Conditions: read-out: IC50 PI3Kα. (In general: Fluorescence polarisation rises when a labelled molecule tumbles more slowly, as on binding a larger partner.)
The next experiment has as its target Human mTOR (FLAG-TOR) (Homo sapiens, UniProt P42345). Kind of experiment: mTOR kinase assay (DELFIA format, purified enzyme). Conditions: read-out: IC50 mTOR. The format is biochemical.
In the next experiment the target is PI3K-γ (Homo sapiens, UniProt P48736). Kind of experiment: PI3K-gamma fluorescence polarization assay. Conditions: read-out: IC50 PI3Kγ.
Chain of PI3K-γ (P48736 whole entry, species assumed): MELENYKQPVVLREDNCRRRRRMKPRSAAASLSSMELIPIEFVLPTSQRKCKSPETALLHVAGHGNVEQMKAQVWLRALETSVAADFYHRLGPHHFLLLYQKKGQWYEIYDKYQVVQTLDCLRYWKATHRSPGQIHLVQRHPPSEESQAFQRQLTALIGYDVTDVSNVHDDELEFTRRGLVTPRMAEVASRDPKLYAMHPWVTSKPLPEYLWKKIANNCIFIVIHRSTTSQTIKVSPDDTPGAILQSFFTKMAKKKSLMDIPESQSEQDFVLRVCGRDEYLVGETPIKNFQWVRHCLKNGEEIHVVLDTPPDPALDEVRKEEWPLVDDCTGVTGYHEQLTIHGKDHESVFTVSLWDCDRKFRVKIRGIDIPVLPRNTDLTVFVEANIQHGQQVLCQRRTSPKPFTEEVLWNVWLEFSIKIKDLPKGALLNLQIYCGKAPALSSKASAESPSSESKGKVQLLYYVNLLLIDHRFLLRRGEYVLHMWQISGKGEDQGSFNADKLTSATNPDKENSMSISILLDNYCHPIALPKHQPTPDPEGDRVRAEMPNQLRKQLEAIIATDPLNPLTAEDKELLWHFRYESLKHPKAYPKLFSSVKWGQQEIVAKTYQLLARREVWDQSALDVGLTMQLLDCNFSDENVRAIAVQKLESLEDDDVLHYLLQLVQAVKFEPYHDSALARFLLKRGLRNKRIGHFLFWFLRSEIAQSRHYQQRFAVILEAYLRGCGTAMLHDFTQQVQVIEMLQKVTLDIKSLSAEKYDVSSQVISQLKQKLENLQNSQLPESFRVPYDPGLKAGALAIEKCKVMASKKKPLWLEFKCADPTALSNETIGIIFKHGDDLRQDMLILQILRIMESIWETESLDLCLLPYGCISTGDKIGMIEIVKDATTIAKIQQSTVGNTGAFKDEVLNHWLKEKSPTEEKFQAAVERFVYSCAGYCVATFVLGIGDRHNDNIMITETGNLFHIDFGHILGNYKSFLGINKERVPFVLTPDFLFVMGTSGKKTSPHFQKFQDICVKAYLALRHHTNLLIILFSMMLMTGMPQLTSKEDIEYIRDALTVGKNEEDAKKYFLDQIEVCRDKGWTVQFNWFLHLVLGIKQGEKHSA
Experiment [1] relates to human breast MDA-MB-361 tumor cell line. Kind of experiment: In vitro cell culture growth assay (MTS), MDA-MB-361. The format is cell-based. Conditions: Homo sapiens, three days after drug treatment, MDA-MB-361 cells, read-out: IC50 MDA-MB-361.
In experiment [2] the test system is human prostate PC3-mm2 tumor cell line. Kind of experiment: In vitro cell culture growth assay (MTS), PC3-mm2. The format is cell-based. Conditions: Homo sapiens, PC3MM2, 72 h, three days after drug treatment, PC3-mm2 cells, read-out: IC50 PC3-mm2.
Setting [3] is: MDA-MB-361, 72 h, MTS cell growth assay.

Chain of Human mTOR (FLAG-TOR) (P42345 1360-2549 limits assumed): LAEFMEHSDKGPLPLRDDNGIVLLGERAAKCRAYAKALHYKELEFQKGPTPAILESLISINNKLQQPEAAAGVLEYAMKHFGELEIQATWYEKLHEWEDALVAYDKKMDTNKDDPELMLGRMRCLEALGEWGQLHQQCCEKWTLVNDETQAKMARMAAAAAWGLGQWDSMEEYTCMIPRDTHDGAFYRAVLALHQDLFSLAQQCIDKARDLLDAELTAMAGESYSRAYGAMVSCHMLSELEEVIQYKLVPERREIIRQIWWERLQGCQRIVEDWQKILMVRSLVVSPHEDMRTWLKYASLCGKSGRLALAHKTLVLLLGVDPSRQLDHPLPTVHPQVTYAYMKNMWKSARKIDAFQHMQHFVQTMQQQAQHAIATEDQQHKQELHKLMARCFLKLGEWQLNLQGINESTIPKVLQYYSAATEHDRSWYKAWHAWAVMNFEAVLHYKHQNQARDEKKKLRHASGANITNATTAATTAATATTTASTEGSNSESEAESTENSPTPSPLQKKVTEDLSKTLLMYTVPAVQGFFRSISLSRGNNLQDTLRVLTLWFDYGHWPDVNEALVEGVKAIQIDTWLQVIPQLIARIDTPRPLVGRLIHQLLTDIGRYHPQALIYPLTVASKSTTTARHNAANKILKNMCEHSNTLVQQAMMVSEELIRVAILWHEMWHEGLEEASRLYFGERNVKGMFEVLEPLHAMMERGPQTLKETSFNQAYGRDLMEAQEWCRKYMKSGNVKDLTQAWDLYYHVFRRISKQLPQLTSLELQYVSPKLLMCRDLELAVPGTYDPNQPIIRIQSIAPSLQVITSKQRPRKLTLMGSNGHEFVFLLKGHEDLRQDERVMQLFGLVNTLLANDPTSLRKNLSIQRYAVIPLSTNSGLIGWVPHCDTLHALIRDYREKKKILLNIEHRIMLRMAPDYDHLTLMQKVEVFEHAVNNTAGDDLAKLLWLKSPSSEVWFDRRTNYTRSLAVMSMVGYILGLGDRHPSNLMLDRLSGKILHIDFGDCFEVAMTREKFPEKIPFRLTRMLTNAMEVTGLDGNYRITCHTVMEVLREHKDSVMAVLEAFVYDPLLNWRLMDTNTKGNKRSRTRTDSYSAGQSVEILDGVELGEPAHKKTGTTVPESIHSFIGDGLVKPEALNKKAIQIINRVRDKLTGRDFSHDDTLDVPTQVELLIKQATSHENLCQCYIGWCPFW
Chain of PI3K-α (P42336 whole entry, species assumed): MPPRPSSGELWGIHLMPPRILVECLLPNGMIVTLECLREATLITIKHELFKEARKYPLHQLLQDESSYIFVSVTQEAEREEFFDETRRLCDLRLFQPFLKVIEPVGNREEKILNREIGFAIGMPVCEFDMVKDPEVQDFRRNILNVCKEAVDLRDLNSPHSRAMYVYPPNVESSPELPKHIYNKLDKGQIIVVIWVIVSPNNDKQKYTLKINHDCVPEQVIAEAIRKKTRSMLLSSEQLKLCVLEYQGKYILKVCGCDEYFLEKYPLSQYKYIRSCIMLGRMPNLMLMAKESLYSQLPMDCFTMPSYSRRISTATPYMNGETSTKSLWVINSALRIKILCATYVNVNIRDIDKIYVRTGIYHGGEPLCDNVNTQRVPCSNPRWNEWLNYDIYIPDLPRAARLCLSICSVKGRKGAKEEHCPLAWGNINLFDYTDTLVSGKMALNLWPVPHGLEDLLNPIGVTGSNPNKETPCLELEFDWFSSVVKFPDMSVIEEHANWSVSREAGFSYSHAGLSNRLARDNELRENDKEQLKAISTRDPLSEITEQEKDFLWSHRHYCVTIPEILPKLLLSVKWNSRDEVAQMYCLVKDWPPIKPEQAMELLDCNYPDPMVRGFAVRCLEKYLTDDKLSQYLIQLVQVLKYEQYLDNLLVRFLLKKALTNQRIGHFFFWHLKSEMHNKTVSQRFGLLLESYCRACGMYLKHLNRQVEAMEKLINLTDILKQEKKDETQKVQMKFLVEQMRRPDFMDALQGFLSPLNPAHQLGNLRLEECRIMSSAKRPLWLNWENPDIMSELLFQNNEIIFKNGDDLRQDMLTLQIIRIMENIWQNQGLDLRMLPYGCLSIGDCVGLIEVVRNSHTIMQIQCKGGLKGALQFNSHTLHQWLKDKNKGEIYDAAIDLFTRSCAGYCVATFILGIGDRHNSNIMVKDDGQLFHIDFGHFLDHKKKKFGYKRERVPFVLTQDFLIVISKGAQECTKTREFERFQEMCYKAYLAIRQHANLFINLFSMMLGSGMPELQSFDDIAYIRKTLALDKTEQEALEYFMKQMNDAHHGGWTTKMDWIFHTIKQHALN
Chain of PI3K-α (P27986 whole entry partner, species assumed): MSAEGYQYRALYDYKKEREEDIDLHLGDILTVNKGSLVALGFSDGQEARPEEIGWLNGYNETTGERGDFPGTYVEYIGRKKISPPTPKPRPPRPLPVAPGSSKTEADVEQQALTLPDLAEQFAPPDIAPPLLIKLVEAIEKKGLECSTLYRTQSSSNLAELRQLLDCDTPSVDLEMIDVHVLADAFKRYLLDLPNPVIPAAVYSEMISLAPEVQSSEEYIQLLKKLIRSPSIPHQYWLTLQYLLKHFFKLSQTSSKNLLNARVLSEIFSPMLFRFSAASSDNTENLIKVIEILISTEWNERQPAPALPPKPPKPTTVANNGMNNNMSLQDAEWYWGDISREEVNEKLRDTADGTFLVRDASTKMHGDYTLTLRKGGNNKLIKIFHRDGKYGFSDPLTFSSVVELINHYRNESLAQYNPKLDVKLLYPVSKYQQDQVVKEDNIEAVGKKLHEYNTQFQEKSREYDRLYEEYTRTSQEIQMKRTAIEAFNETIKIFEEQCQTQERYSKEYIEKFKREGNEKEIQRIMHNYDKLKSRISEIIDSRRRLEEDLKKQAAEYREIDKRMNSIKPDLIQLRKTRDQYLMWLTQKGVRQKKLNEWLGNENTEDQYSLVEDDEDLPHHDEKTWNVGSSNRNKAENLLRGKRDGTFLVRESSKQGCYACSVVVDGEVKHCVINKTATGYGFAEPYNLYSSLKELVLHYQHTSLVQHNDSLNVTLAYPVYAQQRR

On to `CN1CCN(C(=O)c2ccc(NC(=O)Nc3ccc(-c4nc(NS(=O)(=O)c5ccccc5)nc(N5CCOCC5)n4)cc3)cc2)CC1` [Example 784, N-(4-{4-[({4-[(4-methylpiperazin-1-yl)carbonyl]phenyl}carbamoyl)amino]phenyl}-6-morpholin-4-yl-1,3,5-triazin-2-yl)benzenesulfonamide], for which the 50% inhibitory concentration (IC50) (as a rule, the midpoint of a concentration-inhibition curve) at PI3K-α was 0.0405 µM; at Human mTOR (FLAG-TOR) it was 0.088 µM; at PI3K-γ it was 0.174 µM; in experiment [1] (72 h, MTS cell growth assay), over 1 µM; in experiment [2] (MTS cell growth assay) it was over 1 µM.

As for `O=C(Nc1ccc(C(=O)N2CCNCC2)cc1)Nc1ccc(-c2nc(NS(=O)(=O)c3ccccc3)nc(N3CCOCC3)n2)cc1` [Example 785, N-{4-morpholin-4-yl-6-[4-({[4-(piperazin-1-ylcarbonyl)phenyl]carbamoyl}amino)phenyl]-1,3,5-triazin-2-yl}benzenesulfonamide], the IC50 was 0.006 µM on PI3K-α; 0.0555 µM at Human mTOR (FLAG-TOR); 0.0455 µM at PI3K-γ; over 1 µM in experiment [1] (72 h, MTS cell growth assay); over 1 µM in experiment [2] (MTS cell growth assay).

Regarding `CN(C)C1CCN(C(=O)c2ccc(NC(=O)Nc3ccc(-c4nc(NS(=O)(=O)c5ccccc5)nc(N5CCOCC5)n4)cc3)cc2)CC1` [Example 786, N-[4-(4-{[(4-{[4-(dimethylamino)piperidin-1-yl]carbonyl}phenyl)carbamoyl]amino}phenyl)-6-morpholin-4-yl-1,3,5-triazin-2-yl]benzenesulfonamide], the IC50 on PI3K-α is 0.0305 µM; at Human mTOR (FLAG-TOR), 0.089 µM; on PI3K-γ, 0.129 µM; in experiment [1] (setting [3]), over 1 µM; in experiment [2] (MTS cell growth assay), over 1 µM.

On to `CN(C)CCN(C)C(=O)c1ccc(NC(=O)Nc2ccc(-c3nc(NS(=O)(=O)c4ccccc4)nc(N4CCOCC4)n3)cc2)cc1` [Example 787, N-[2-(dimethylamino)ethyl]-N-methyl-4-{[(4-{4-morpholin-4-yl-6-[(phenylsulfonyl)amino]-1,3,5-triazin-2-yl}phenyl)carbamoyl]amino}benzamide], for which the IC50 at PI3K-α was 0.0105 µM; on Human mTOR (FLAG-TOR), 0.0585 µM; at PI3K-γ, 0.145 µM; in experiment [1] (72 h, MTS cell growth assay) it was over 1 µM; in experiment [2] (MTS cell growth assay), over 1 µM.

As for `CN(C)CCNC(=O)c1ccc(NC(=O)Nc2ccc(-c3nc(NS(=O)(=O)c4ccccc4)nc(N4CCOCC4)n3)cc2)cc1` [Example 788, N-[2-(dimethylamino)ethyl]-4-{[(4-{4-morpholin-4-yl-6-[(phenylsulfonyl)amino]-1,3,5-triazin-2-yl}phenyl)carbamoyl]amino}benzamide], the IC50 at PI3K-α is 0.013 µM; at Human mTOR (FLAG-TOR), 0.026 µM; on PI3K-γ it was 0.16 µM; in experiment [1] (72 h, MTS cell growth assay) it was over 1 µM; in experiment [2] (MTS cell growth assay), over 1 µM.

Turning to `O=C(Nc1ccncc1)Nc1ccc(-c2nc(N3CCOCC3)nc(N3C4CCCC3COC4)n2)cc1` [Example 791, 1-{4-[4-morpholin-4-yl-6-(3-oxa-9-azabicyclo[3.3.1]non-9-yl)-1,3,5-triazin-2-yl]phenyl}-3-pyridin-4-ylurea], the half-inhibitory concentration (IC50) is 0.0125 µM at PI3K-α; 0.00068 µM at Human mTOR (FLAG-TOR); 0.0645 µM on PI3K-γ; 0.011 µM in experiment [1] (72 h, MTS cell growth assay); 0.042 µM in experiment [2] (MTS cell growth assay).

For `CN1CCN(C(=O)c2ccc(NC(=O)Nc3ccc(-c4nc(N5CCOCC5)nc(N5C6CCCC5COC6)n4)cc3)cc2)CC1` [Example 792, 1-{4-[(4-methylpiperazin-1-yl)carbonyl]phenyl}-3-{4-[4-morpholin-4-yl-6-(3-oxa-9-azabicyclo[3.3.1]non-9-yl)-1,3,5-triazin-2-yl]phenyl}urea], the IC50 on PI3K-α is 0.0033 µM; at Human mTOR (FLAG-TOR), 0.00081 µM; on PI3K-γ, 0.0355 µM; in experiment [1] (setting [3]), 0.002 µM; in experiment [2] (MTS cell growth assay), 0.016 µM.

In the case of `O=C(Nc1ccc(C(=O)N2CCNCC2)cc1)Nc1ccc(-c2nc(N3CCOCC3)nc(N3C4CCCC3COC4)n2)cc1` [Example 793, 1-{4-[4-morpholin-4-yl-6-(3-oxa-9-azabicyclo[3.3.1]non-9-yl)-1,3,5-triazin-2-yl]phenyl}-3-[4-(piperazin-1-ylcarbonyl)phenyl]urea], the IC50 at PI3K-α was 0.001 µM; on Human mTOR (FLAG-TOR), 0.00042 µM; at PI3K-γ it was 0.015 µM; in experiment [1] (setting [3]) it was 0.002 µM; in experiment [2] (MTS cell growth assay), 0.026 µM.

For the molecule `CN(C)C1CCN(C(=O)c2ccc(NC(=O)Nc3ccc(-c4nc(N5CCOCC5)nc(N5C6CCCC5COC6)n4)cc3)cc2)CC1` [Example 794, 1-(4-{[4-(dimethylamino)piperidin-1-yl]carbonyl}phenyl)-3-{4-[4-morpholin-4-yl-6-(3-oxa-9-azabicyclo[3.3.1]non-9-yl)-1,3,5-triazin-2-yl]phenyl}urea], the IC50 was 0.0041 µM on PI3K-α; 0.00063 µM on Human mTOR (FLAG-TOR); 0.026 µM on PI3K-γ; 0.002 µM in experiment [1] (setting [3]); 0.02 µM in experiment [2] (MTS cell growth assay).

Consider `CN(C)CCN(C)C(=O)c1ccc(NC(=O)Nc2ccc(-c3nc(N4CCOCC4)nc(N4C5CCCC4COC5)n3)cc2)cc1` [Example 795, N-[2-(dimethylamino)ethyl]-N-methyl-4-[({4-[4-morpholin-4-yl-6-(3-oxa-9-azabicyclo[3.3.1]non-9-yl)-1,3,5-triazin-2-yl]phenyl}carbamoyl)amino]benzamide], for which the IC50 was 0.0027 µM at PI3K-α; 0.000425 µM at Human mTOR (FLAG-TOR); 0.0265 µM at PI3K-γ; under 0.0032 µM in experiment [1] (72 h, MTS); 0.01 µM in experiment [2] (MTS).

Consider `CN(C)CCNC(=O)c1ccc(NC(=O)Nc2ccc(-c3nc(N4CCOCC4)nc(N4C5CCCC4COC5)n3)cc2)cc1` [Example 796, N-[2-(dimethylamino)ethyl]-4-[({4-[4-morpholin-4-yl-6-(3-oxa-9-azabicyclo[3.3.1]non-9-yl)-1,3,5-triazin-2-yl]phenyl}carbamoyl)amino]benzamide], for which the IC50 at PI3K-α came out at 0.0026 µM; on Human mTOR (FLAG-TOR), 0.00039 µM; at PI3K-γ, 0.0315 µM; in experiment [1] (72 h, MTS), 0.002 µM; in experiment [2] (MTS) it was 0.018 µM.

Take `COCCNC(=O)c1ccc(NC(=O)Nc2ccc(-c3nc(N4CCOCC4)nc(N4C5CCCC4COC5)n3)cc2)cc1` [Example 797, N-(2-methoxyethyl)-4-[({4-[4-morpholin-4-yl-6-(3-oxa-9-azabicyclo[3.3.1]non-9-yl)-1,3,5-triazin-2-yl]phenyl}carbamoyl)amino]benzamide]: the IC50 on PI3K-α came to 0.0115 µM; on Human mTOR (FLAG-TOR), 0.0013 µM; on PI3K-γ, 0.076 µM; in experiment [1] (72 h, MTS), 0.011 µM; in experiment [2] (MTS), 0.029 µM.

For the molecule `O=C(Nc1ccc(C(=O)NCCN2CCCC2)cc1)Nc1ccc(-c2nc(N3CCOCC3)nc(N3C4CCCC3COC4)n2)cc1` [Example 798, 4-[({4-[4-morpholin-4-yl-6-(3-oxa-9-azabicyclo[3.3.1]non-9-yl)-1,3,5-triazin-2-yl]phenyl}carbamoyl)amino]-N-(2-pyrrolidin-1-ylethyl)benzamide], the IC50 on PI3K-α was 0.0041 µM; at Human mTOR (FLAG-TOR), 0.000445 µM; at PI3K-γ it was 0.0435 µM; in experiment [1] (72 h, MTS), 0.003 µM; in experiment [2] (MTS), 0.024 µM.
